In the supplement of paper PMC4862054:

What was measured:
Assay in all cases: normalised response (% of control), CellTiter-Glo; higher = more viable cells (100 = DMSO, 0 = benzethonium chloride kill control)
Conditions in all cases: incubation time: 72 h
[1] = system: MDA-MB-231
Summary of the method: (§1)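 Compound was dispensed into 384-well plates at 5 concentrations in 10-fold steps spanning a 10,000-fold range specific to that compound. Breast cancer cell lines were added as 20 µl suspension and left for 72 h before CellTox Green fluorescence (485/520 nm) and then CellTiter-Glo luminescence, read after 10 min at room temperature. Each reported value is the normalised signal at one concentration, with 0.1 % DMSO set at 100 and a positive kill control at 0 on each plate.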

[2] = system: MCF-10A
Summary of the method: as §1

[3] = system: DU-4475
Summary of the method: as §1

[4] = system: SK-BR-3
Summary of the method: as §1

[5] = system: CAL-148
Summary of the method: as §1

[6] = system: MFM-223
Summary of the method: as §1

[7] = system: BT-549
Summary of the method: as §1

[8] = system: CAL-51
Summary of the method: as §1

[9] = system: MDA-MB-436
Summary of the method: as §1

[10] = system: HDQ-P1
Summary of the method: as §1

[11] = system: CAL-85-1
Summary of the method: as §1

[12] = system: HCC1937
Summary of the method: as §1

[13] = system: Hs578T
Summary of the method: as §1

[14] = system: CAL-120
Summary of the method: as §1

[15] = system: HCC1599
Summary of the method: as §1

[16] = system: MDA-MB-468
Summary of the method: as §1

[17] = system: BT-474
Summary of the method: as §1

[18] = system: HCC1143
Summary of the method: as §1

[19] = system: MDA-MB-453
Summary of the method: as §1

| Structure (SMILES) | normalised response [1] [%] | normalised response [2] [%] | normalised response [3] [%] | normalised response [4] [%] | normalised response [5] [%] | normalised response [6] [%] | normalised response [7] [%] | normalised response [8] [%] | normalised response [9] [%] | normalised response [10] [%] | normalised response [11] [%] | normalised response [12] [%] | normalised response [13] [%] | normalised response [14] [%] | normalised response [15] [%] | normalised response [16] [%] | normalised response [17] [%] | normalised response [18] [%] | normalised response [19] [%] |
| --- | --- | --- | --- | --- | --- | --- | --- | --- | --- | --- | --- | --- | --- | --- | --- | --- | --- | --- | --- |
| COc1ccc(-c2cc3c(C)nc(N)nc3n([C@H]3CC[C@H](OCCO)CC3)c2=O)cn1 (1 nM) | 96.5 | 84.8 | 90.7 | 80.9 | 82.3 | 85.4 | 101 | 112 | 83.5 | 89.5 | 93.8 | 96.2 | 96.8 | 91.1 | 104 | 97 | 93.4 | 88.6 | 97.4 |
| CNC(=O)c1cc(Oc2ccc(NC(=O)Nc3ccc(Cl)c(C(F)(F)F)c3)cc2)ccn1 [Sorafenib] (0.1 nM) | 107 | 95.7 | 101 | 102 | 106 | 98.8 | 104 | 118 | 102 | 99.7 | 101 | 97.7 | 98.3 | 100 | 103 | 101 | 105 | 99.7 | 108 |
| CCCCC/C=C/C=C1/C(=O)C=C[C@@H]1C/C=C\CCCC(=O)O [15D-PGJ2] (0.8 nM) | 102 | 104 | 102 | 101 | 107 | 102 | 97.8 | 81.2 | 98.2 | 98.9 | 94.7 | 108 | 101 | 100 | 93.8 | 92.8 | 103 | 108 | 97 |
| CC(C)N(CCCNC(=O)Nc1ccc(C(C)(C)C)cc1)C[C@H]1O[C@@H](n2cc(Br)c3c(N)ncnc32)[C@H](O)[C@@H]1O [SGC0946] (10 nM) | 97.5 | 97.4 | 93.6 | 105 | 91.2 | 96.6 | 93.1 | 108 | 92.3 | 97.2 | 94 | 89.6 | 98.1 | 92.9 | 93.8 | 86.9 | 98.8 | 99.9 | 89.4 |
| CCN(CC)CCNC(=O)c1c(C)[nH]c(/C=C2\C(=O)Nc3ccc(F)cc32)c1C [Sunitinib] (1 nM) | 101 | 107 | 99.4 | 111 | 103 | 105 | 95.5 | 141 | 104 | 97.1 | 99.9 | 107 | 97.7 | 107 | 119 | 106 | 109 | 103 | 105 |
| Cc1nc(Nc2ncc(C(=O)Nc3c(C)cccc3Cl)s2)cc(N2CCN(CCO)CC2)n1 [Dasatinib] (0.1 nM) | 93.9 | 107 | 94.6 | 98.3 | 96.9 | 99.9 | 98.3 | 77 | 101 | 98.9 | 94.2 | 98.5 | 99.7 | 98.9 | 99 | 93.3 | 97.3 | 96.5 | 112 |
| Cc1c(CN2CCN(C(=O)[C@H](C)O)CC2)sc2c(N3CCOCC3)nc(-c3cnc(N)nc3)nc12 [GDC-0980] (1 nM) | 109 | 108 | 104 | 105 | 112 | 98.8 | 105 | 115 | 101 | 103 | 105 | 98.9 | 103 | 104 | 110 | 108 | 111 | 96.7 | 94.9 |
| Cn1cc(CNCC2CCN(c3ncc(C(=O)NO)cn3)CC2)c2ccccc21 [Quisinostat] (0.1 nM) | 106 | 109 | 103 | 108 | 109 | 104 | 99.8 | 84.2 | 101 | 100 | 107 | 99.6 | 96.5 | 103 | 92.9 | 109 | 104 | 105 | 109 |
